Measured values published in ChEMBL document CHEMBL1201862, “PubChem BioAssay data set” (2004).
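Growth conditions: 96-well plates. Treatment: test compound, 48 hours, 5 concentrations. Analysis: linear interpolation between bracketing concentrations; unreached endpoints set to highest concentration. GI50: concentration for 50% inhibition of growth.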 Activity calls are given as the source filed them. Cut-off read from the data, not from the text of the source: active = GI50 up to about 1.1 µM and inactive = higher.

Tests used:
Test in all cases: inhibition of tumour cell growth, NCI panel, 48 h
[1] = test system: CAKI-1
[2] = test system: MOLT-4
[3] = test system: SF-268
[4] = test system: Malme-3M
[5] = test system: T47D
[6] = test system: SNB-75
[7] = test system: OVCAR-5
[8] = test system: KM12
[9] = test system: NCI-H460
[10] = test system: IGROV-1
[11] = test system: M14
[12] = test system: SR
[13] = test system: U-251
[14] = test system: SW-620
[15] = test system: LOX IMVI
[16] = test system: OVCAR-8
[17] = test system: RXF 393
[18] = test system: HT-29
[19] = test system: UO-31
[20] = test system: A498

Row | Structure (SMILES) | GI50 [1] | GI50 [2] | GI50 [3] | GI50 [4] | GI50 [5] | GI50 [6] | GI50 [7] | GI50 [8] | GI50 [9] | GI50 [10] | GI50 [11] | GI50 [12] | GI50 [13] | GI50 [14] | GI50 [15] | GI50 [16] | GI50 [17] | GI50 [18] | GI50 [19] | GI50 [20]
1 | Cc1c2cnccc2c(C)c2c1[nH]c1ccc(O)cc12 | 1.43 µM (inactive) | 0.498 µM (active) | 1.01 µM (active) | 1.35 µM (inactive) | 5.92 µM (inactive) | 1.87 µM (inactive) | 2.4 µM (inactive) | 0.962 µM (active) | 0.458 µM (active) | 1.85 µM (inactive) | 1.57 µM (inactive) | 0.31 µM (active) | 2.02 µM (inactive) | 0.989 µM (active) | 0.342 µM (active) | 0.607 µM (active) | 1.53 µM (inactive) | 1.51 µM (inactive) |  | 
2 | Cc1csc(-c2cn(C)c3c2C(=O)C(=N)C=C3O)n1 | 3.68 µM (inactive) | 3.18 µM (inactive) | 15.8 µM (inactive) |  | 17.7 µM (inactive) | 1.8 µM (inactive) | 42.4 µM (inactive) | 11.2 µM (inactive) | 3.97 µM (inactive) | 2.31 µM (inactive) | 3.74 µM (inactive) | 2.52 µM (inactive) | 37.1 µM (inactive) | 9.73 µM (inactive) | 3.52 µM (inactive) | 6.34 µM (inactive) | 54.1 µM (inactive) | 8.69 µM (inactive) | 5.9 µM (inactive) | 12.2 µM (inactive)
3 | COc1ccc(C2C3CCc4ccccc4C3=NN2S(=O)(=O)c2ccc(Cl)cc2)cc1 (stereo not given) | 16.2 µM (inactive) | 13.1 µM (inactive) | 18.4 µM (inactive) | 59.3 µM (inactive) | 10.7 µM (inactive) |  | 47.6 µM (inactive) | 7.08 µM (inactive) | 15.8 µM (inactive) | 2.61 µM (inactive) | 18.3 µM (inactive) | 3.01 µM (inactive) | 17.6 µM (inactive) | 23.2 µM (inactive) | 22.8 µM (inactive) | 41.6 µM (inactive) | 12.1 µM (inactive) | 18.1 µM (inactive) | 22.6 µM (inactive) | 
4 | O=NN1CCNC1Cc1ccccc1 (stereo not given) |  | 27 µM (inactive) | 43.4 µM (inactive) | > 100 µM (inactive) | 47.1 µM (inactive) | 18.3 µM (inactive) | > 100 µM (inactive) | > 100 µM (inactive) | 38.7 µM (inactive) | > 100 µM (inactive) | 41.6 µM (inactive) | 23.8 µM (inactive) | 33.3 µM (inactive) | > 100 µM (inactive) | > 100 µM (inactive) | > 100 µM (inactive) | 88.7 µM (inactive) | > 100 µM (inactive) | 43.7 µM (inactive) | 
5 | CCN(CC)CCNc1ccc2nnn3c4ccc(OCCN(CC)CC)cc4c(=O)c1c23 | 66.1 µM (inactive) | 6.73 µM (inactive) | 54.1 µM (inactive) |  | > 100 µM (inactive) |  | > 100 µM (inactive) | 32.3 µM (inactive) | 33.7 µM (inactive) |  | > 100 µM (inactive) | 19.4 µM (inactive) | 60.3 µM (inactive) | 38.2 µM (inactive) |  | 27.9 µM (inactive) | 62.5 µM (inactive) | 18.5 µM (inactive) | 89.9 µM (inactive) | > 100 µM (inactive)
6 | O=C1/C(=C/c2ccc(Cl)cc2)CCC/C1=C\c1ccc(O)c(CN2CCCCC2)c1 | 18.9 µM (inactive) | 24 µM (inactive) |  | 21.4 µM (inactive) | 19.5 µM (inactive) | 19.1 µM (inactive) | 23.8 µM (inactive) | 4.51 µM (inactive) | 19.5 µM (inactive) | 15.5 µM (inactive) | 20.8 µM (inactive) | 3.78 µM (inactive) | 16.6 µM (inactive) | 18 µM (inactive) | 13.1 µM (inactive) | 14.5 µM (inactive) |  | 3.54 µM (inactive) | 16.3 µM (inactive) | 14.6 µM (inactive)
7 | Cn1c(-c2ccccc2)cc(-c2cccs2)c1-c1ccsc1 | > 100 µM (inactive) | > 100 µM (inactive) | > 100 µM (inactive) |  | > 100 µM (inactive) | > 100 µM (inactive) | > 100 µM (inactive) | 80.5 µM (inactive) | > 100 µM (inactive) | > 100 µM (inactive) | > 100 µM (inactive) | > 100 µM (inactive) | > 100 µM (inactive) | > 100 µM (inactive) | > 100 µM (inactive) | > 100 µM (inactive) | > 100 µM (inactive) | > 100 µM (inactive) | > 100 µM (inactive) | > 100 µM (inactive)
8 | C=C1CN=C(Nc2ccc(Cl)cc2)S1 | > 10 µM (inactive) | > 10 µM (inactive) | > 100 µM (inactive) | > 100 µM (inactive) | > 100 µM (inactive) | > 100 µM (inactive) | > 100 µM (inactive) | 66.7 µM (inactive) | > 100 µM (inactive) | > 100 µM (inactive) | > 100 µM (inactive) | 52.8 µM (inactive) | 93.3 µM (inactive) | > 100 µM (inactive) | 62.1 µM (inactive) | > 100 µM (inactive) |  | > 100 µM (inactive) | > 100 µM (inactive) | > 100 µM (inactive)
9 | C[Si](C)(C)C#CCOC=C1CC1 | > 100 µM (inactive) | > 100 µM (inactive) | > 100 µM (inactive) | > 100 µM (inactive) | > 100 µM (inactive) | > 100 µM (inactive) | > 100 µM (inactive) | > 100 µM (inactive) | > 100 µM (inactive) | 70.8 µM (inactive) | > 100 µM (inactive) | 52.5 µM (inactive) | > 100 µM (inactive) | > 100 µM (inactive) | 28.6 µM (inactive) | > 100 µM (inactive) | 3.45 µM (inactive) | > 100 µM (inactive) | > 100 µM (inactive) | 
10 | Cc1ccc(C(=O)N/N=C(\N=N\c2cccc(C)c2)c2ccc(N(CCC#N)CCC#N)cc2C)cc1 | > 100 µM (inactive) | 38.9 µM (inactive) | 59.6 µM (inactive) |  | 44 µM (inactive) | 47.5 µM (inactive) | > 100 µM (inactive) | 31.8 µM (inactive) | 52.7 µM (inactive) | 34.3 µM (inactive) | 89.5 µM (inactive) | 55.1 µM (inactive) | 47 µM (inactive) | 50.5 µM (inactive) | 88.9 µM (inactive) | 43.3 µM (inactive) | 89.1 µM (inactive) | 34.4 µM (inactive) | > 100 µM (inactive) | 73.3 µM (inactive)
11 | CNC(=O)Oc1ccc(-c2cn3cc(OC(=O)NC)ccc3n2)cc1 | 34.1 µM (inactive) | 20.5 µM (inactive) | 19.3 µM (inactive) |  | 31.3 µM (inactive) | 62.4 µM (inactive) | > 100 µM (inactive) | 44 µM (inactive) | 39.4 µM (inactive) | 54 µM (inactive) | 41.7 µM (inactive) | 21 µM (inactive) | 36.9 µM (inactive) | 35.1 µM (inactive) | 34.3 µM (inactive) | 49.9 µM (inactive) | 60 µM (inactive) | 41.5 µM (inactive) | 26.5 µM (inactive) | 66.4 µM (inactive)
12 | NC(=O)c1c(NC=O)ncn1C1OCC(O)C(O)C1O (stereo not given) | > 100 µM (inactive) | > 100 µM (inactive) | > 100 µM (inactive) | > 100 µM (inactive) | > 100 µM (inactive) | > 100 µM (inactive) | > 100 µM (inactive) | > 100 µM (inactive) | > 100 µM (inactive) | > 100 µM (inactive) |  | > 100 µM (inactive) | > 100 µM (inactive) | > 100 µM (inactive) | > 100 µM (inactive) | > 100 µM (inactive) | > 100 µM (inactive) | > 100 µM (inactive) | > 100 µM (inactive) | 
13 | CCOC(=O)C(NC(=O)Nc1ccccc1F)(OC)C(F)(F)F (stereo not given) | 44.5 µM (inactive) | > 100 µM (inactive) | > 100 µM (inactive) |  | > 100 µM (inactive) | > 100 µM (inactive) | > 100 µM (inactive) |  |  | > 100 µM (inactive) | > 100 µM (inactive) | > 100 µM (inactive) | > 100 µM (inactive) | > 100 µM (inactive) | > 100 µM (inactive) | > 100 µM (inactive) | > 100 µM (inactive) | > 100 µM (inactive) | > 100 µM (inactive) | > 100 µM (inactive)
14 | O=C1c2ccccc2-c2nc(/C=C/c3ccccc3)cc3c2c1nc1ccccc13 | 26 µM (inactive) | 23.6 µM (inactive) | 65 µM (inactive) |  | 48.8 µM (inactive) | 17.8 µM (inactive) | > 100 µM (inactive) | 18.5 µM (inactive) |  | 20.4 µM (inactive) | 26.2 µM (inactive) | 1.8 µM (inactive) | 17.7 µM (inactive) | 20 µM (inactive) |  | 24.3 µM (inactive) | 29.2 µM (inactive) | 30.8 µM (inactive) | 29.6 µM (inactive) | 60.1 µM (inactive)
15 | COc1cccc(NC(=O)CC(=O)N2N=C(C)C(/N=N/c3ccc(C(=O)O)cc3)C2=O)c1 (stereo not given) | > 100 µM (inactive) |  | > 100 µM (inactive) | 56.6 µM (inactive) | > 100 µM (inactive) | 16.6 µM (inactive) | > 100 µM (inactive) | > 100 µM (inactive) |  | 46.7 µM (inactive) | > 100 µM (inactive) | > 100 µM (inactive) |  | > 100 µM (inactive) | > 100 µM (inactive) | > 100 µM (inactive) | > 100 µM (inactive) | 93.8 µM (inactive) | > 100 µM (inactive) | 
